According to article PMC9182490, “N-Glucosylation in Corynebacterium glutamicum with YdhE from Bacillus lichenformis” (Molecules, 2022):

Target: T1, YdhE (CO-YdhE) (Bacillus licheniformis, UniProt Q62XT4)
T1 construct: 45 kDa band on SDS-PAGE; not purified
T1 sequence (Q62XT4 1-404): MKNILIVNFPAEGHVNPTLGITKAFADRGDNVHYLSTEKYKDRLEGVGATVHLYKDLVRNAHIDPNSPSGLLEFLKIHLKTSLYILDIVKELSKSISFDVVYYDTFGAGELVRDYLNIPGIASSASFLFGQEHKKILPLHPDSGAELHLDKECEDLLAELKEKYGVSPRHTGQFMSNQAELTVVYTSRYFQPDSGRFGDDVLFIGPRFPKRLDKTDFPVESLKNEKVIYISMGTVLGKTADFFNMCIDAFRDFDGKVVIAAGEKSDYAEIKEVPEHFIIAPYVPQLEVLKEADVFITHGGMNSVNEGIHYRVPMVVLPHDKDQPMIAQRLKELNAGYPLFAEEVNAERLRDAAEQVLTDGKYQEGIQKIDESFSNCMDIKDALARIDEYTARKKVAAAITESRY
Assay: whole-cell N-glucosylation, HPLC-PDA and HR-QTOF ESI/MS, product NMR
Type: cell-based, Corynebacterium glutamicum
Settings: C. glutamicum harboring pSKSM-YdhE; glucose as sugar source, UDP-sugar donor made by host; 2 mM substrate, 37 °C; product is N-beta-D-glucopyranoside

## CCCCOC(=O)c1ccc(N)cc1 [compound 2, butyl-4-aminobenzoate]
  whole-cell N-glucosylation, HPLC-PDA and HR-QTOF ESI/MS, product NMR: confirmed the glucosylation of butyl-4-aminobenzoate
